In this experiment the target is human 11β-HSD1 (Homo sapiens, UniProt P28845). The experiment in a line: Inhibition of a microsomal preparation of 11β-HSD1, SPA (Biological Test Example 2). In kind it is biochemical. Set-up: expressed in transfected cells; host or cells: CHO cells (microsomes). The following applies: read-out: Biological Test Example 2 (IC50 class). As to the method: All reactions are carried out at room temperature in 96 well clear flexible PET Microbeta plates (PerkinElmer). […] After a 10 minute pre-incubation, 50 μL of enzyme solution containing microsomes isolated from CHO cells overexpressing human 11β-HSD1 (10-20 μg/ml of total protein) is added, and the plates are then incubated for 90 minutes at room temperature. The reaction is stopped by adding 50 μl of the SPA beads suspension containing […] 18β-glycyrrhetinic acid, 5 mg/ml protein A coated YSi SPA beads (GE Healthcare) and 3.3 μg/ml of anti-cortisol antibody (East Coast Biologics) in Superblock buffer (Bio-Rad). The plates are then shaken for 120 minutes at room temperature, and the SPA signal corresponding to [^3H]cortisol is measured on a Microbeta plate reader.

pIC50: −log10 of the molar value. Some results are limits rather than exact numbers.

Chain of human 11β-HSD1 (P28845 whole entry): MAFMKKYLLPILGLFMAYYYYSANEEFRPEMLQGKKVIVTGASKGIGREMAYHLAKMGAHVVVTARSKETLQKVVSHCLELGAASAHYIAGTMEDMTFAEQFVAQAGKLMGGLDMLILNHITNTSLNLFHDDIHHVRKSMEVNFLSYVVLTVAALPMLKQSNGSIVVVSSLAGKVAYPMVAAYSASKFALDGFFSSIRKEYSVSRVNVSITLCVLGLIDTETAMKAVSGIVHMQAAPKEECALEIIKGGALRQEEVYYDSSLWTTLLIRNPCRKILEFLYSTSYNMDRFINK

As for “3-(1′-(2-Adamantyloxycarbonyl)-1H-spiro[isoquinoline-4,4′-piperidine]-2(3H)-ylsulfonyl)propanoic acid [Example 109]”, the negative-log IC50 (pIC50) is above 7.30.
The value for “3-(1′-((2-Adamantyl)carbamoyl)-1H-spiro[isoquinoline-4,4′-piperidine]-2(3H)-yl)propanoic acid [Example 33]” was above 7.30; that for “4-(1′-(2-Adamantyloxycarbonyl)-1H-spiro[isoquinoline-4,4′-piperidine]-2(3H)-yl)-4-oxobutanoic acid [Example 94]” was above 7.30; that for `CCOC(=O)CC1CC2(CCN(C(=O)NC3C4CC5CC(C4)CC3C5)CC2)c2c(Br)cccc21` (racemic) [Example 42, (±)-Ethyl 2-(7-bromo-1′-((2-adamantyl)carbamoyl)-2,3-dihydrospiro[indene-1,4′-piperidine]-3-yl)acetate] was above 7.30.
The value for `O=C(O)CC1CC2(CCN(C(=O)NC3C4CC5CC(C4)CC3C5)CC2)c2c(Br)cccc21` (racemic) [Example 43, (±)-2-(7-Bromo-1′-((2-adamantyl)carbamoyl)-2,3-dihydrospiro[indene-1,4′-piperidine]-3-yl)acetic acid] was above 7.30.
The value for `N#CCC1CC2(CCN(C(=O)NC3C4CC5CC(C4)CC3C5)CC2)c2ccccc21` (racemic) [Example 45] was above 7.30.
For `O=C(NC1C2CC3CC(C2)CC1C3)N1CCC2(CC1)CC(Cc1nnn[nH]1)c1ccccc12` (racemic) [Example 46, (±)-3-((1H-Tetrazol-5-yl)methyl)-N-(2-adamantyl)-2,3-dihydrospiro[indene-1,4′-piperidine]-1′-carboxamide], the pIC50 is above 7.30.
Take `CCOC(=O)CC1CC2(CCN(C(=O)NC3C4CC5CC(C4)CC3C5)CC2)c2c(C)cccc21` (racemic) [Example 47, (±)-Ethyl 2-(1′-((2-adamantyl)carbamoyl)-7-methyl-2,3-dihydrospiro[indene-1,4′-piperidine]-3-yl)acetate]: the negative logarithm of the IC50 (pIC50) was above 7.30.
For the molecule `Cc1cccc2c1C1(CCN(C(=O)NC3C4CC5CC(C4)CC3C5)CC1)CC2CC(=O)O` (racemic) [Example 48, (±)-2-(1′-((2-Adamantyl)carbamoyl)-7-methyl-2,3-dihydrospiro[indene-1,4′-piperidine]-3-yl)acetic acid], the pIC50 was above 7.30.
The value for `CCOC(=O)CC1CC2(CCN(C(=O)NC3C4CC5CC(C4)CC3C5)CC2)c2cccc(C)c21` (racemic) [Example 49, (±)-Ethyl 2(1′-((2-adamantyl)carbamoyl)-4-methyl-2,3-dihydrospiro[indene-1,4′-piperidine]-3-yl)acetate] was above 7.30.
Consider `CCOC(=O)CC1CC2(CCN(C(=O)NC3C4CC5CC(C4)CC3C5)CC2)c2c(Cl)cccc21` (racemic) [Example 51, (±)-Ethyl 2-(1′-((2-adamantyl)carbamoyl)-7-chloro-2,3-dihydrospiro[indene-1,4′-piperidine]-3-yl)acetate], for which the negative-log IC50 (pIC50) is above 7.30.
The value for `O=C(O)CC1CC2(CCN(C(=O)NC3C4CC5CC(C4)CC3C5)CC2)c2c(Cl)cccc21` (racemic) [Example 52, (±)-2-(1′-((2-Adamantyl)carbamoyl)-7-chloro-2,3-dihydrospiro[indene-1,4′-piperidine]-3-yl)acetic acid] was above 7.30.
The value for `CCOC(=O)CC1CC2(CCN(C(=O)NC3C4CC5CC(C4)CC3C5)CC2)c2cc(Cl)ccc21` (racemic) [Example 53, (±)-Ethyl 2-(1′-((2-adamantyl)carbamoyl)-6-chloro-2,3-dihydrospiro[indene-1,4′-piperidine]-3-yl)acetate] was above 7.30; that for `O=C(O)CC1CC2(CCN(C(=O)NC3C4CC5CC(C4)CC3C5)CC2)c2cc(Cl)ccc21` (racemic) [Example 54, (±)-2-(1′-((2-Adamantyl)carbamoyl)-6-chloro-2,3-dihydrospiro[indene-1,4′-piperidin]-3-yl)acetic acid] was above 7.30.
As to `CCOC(=O)CC1CC2(CCN(C(=O)NC3C4CC5CC(C4)CC3C5)CC2)c2ccc(Cl)cc21` (racemic) [Example 55, (±)-Ethyl 2-(1′-((2-adamantyl)carbamoyl)-5-chloro-2,3-dihydrospiro[indene-1,4′-piperidine]-3-yl)acetate], the negative-log IC50 (pIC50) is above 7.30.
`O=C(O)CC1CC2(CCN(C(=O)NC3C4CC5CC(C4)CC3C5)CC2)c2ccc(Cl)cc21` (racemic) [Example 56, (±)-2-(1′-((2-Adamantyl)carbamoyl)-5-chloro-2,3-dihydrospiro[indene-1,4′-piperidine]-3-yl)acetic acid]: the pIC50 was above 7.30.
Consider `Cc1ccc2c(c1)C1(CCN(C(=O)NC3C4CC5CC(C4)CC3C5)CC1)CC2CC(=O)O` (racemic) [Example 57, (±)-2-(1′-((2-Adamantyl)carbamoyl)-6-methyl-2,3-dihydrospiro[indene-1,4′-piperidine]-3-yl)acetic acid], for which the pIC50 is above 7.30.
The value for `COc1ccc2c(c1)C1(CCN(C(=O)NC3C4CC5CC(C4)CC3C5)CC1)CC2CC(=O)O` (racemic) [Example 59, (±)-2-(1′-((2-Adamantyl)carbamoyl)-6-methoxy-2,3-dihydrospiro[indene-1,4′-piperidine]-3-yl)acetic acid] was above 7.30.
The value for `O=C(O)CC1CC2(CCN(C(=O)NC3C4CC5CC(C4)CC3C5)CC2)c2cc(F)ccc21` (racemic) [Example 60, (±)-2-(1′-((2-Adamantyl)carbamoyl)-6-fluoro-2,3-dihydrospiro[indene-1,4′-piperidine]-3-yl)acetic acid] was above 7.30; that for `CCOC(=O)CC1CC2(CCN(C(=O)NC34CC5CC(CC(C5)C3)C4)CC2)c2c(Br)cccc21` (racemic) [Example 61, (±)-Ethyl 2-(7-bromo-1′-((1-adamantyl)carbamoyl)-2,3-dihydrospiro[indene-1,4′-piperidine]-3-yl)acetate] was above 7.30.
Regarding `O=C(O)CC1CC2(CCN(C(=O)NC34CC5CC(CC(C5)C3)C4)CC2)c2c(Br)cccc21` (racemic) [Example 62, (±)-2-(7-Bromo-1′-((1-adamantyl)carbamoyl)-2,3-dihydrospiro[indene-1,4′-piperidine]-3-yl)acetic acid], the pIC50 was above 7.30.
As to `O=C(O)CC1CC2(CCN(C(=O)OC3C4CC5CC(C4)CC3C5)CC2)c2c(Br)cccc21` (racemic) [Example 63, (±)-2-(7-Bromo-1′-((2-adamantyloxy)carbonyl)-2,3-dihydrospiro[indene-1,4′-piperidine]-3-yl)acetic acid], the pIC50 was above 7.30.
The value for `Cc1ccc2c(c1)C1(CCN(C(=O)OC3C4CC5CC(C4)CC3C5)CC1)CC2CC(=O)O` (racemic) [Example 64, (±)-2-(6-Methyl-1′-((2-adamantyloxy)carbonyl)-2,3-dihydrospiro[indene-1,4′-piperidine]-3-yl)acetic acid] was above 7.30.
As for `Cc1ccc2c(c1)C(CC(=O)O)CC21CCN(C(=O)OC2C3CC4CC(C3)CC2C4)CC1` (racemic) [Example 65, (±)-2-(5-Methyl-1′-((2-adamantyloxy)carbonyl)-2,3-dihydrospiro[indene-1,4′-piperidine]-3-yl)acetic acid], the pIC50 is above 7.30.
As to `CCOC(=O)C(C)(C)C1CC2(CCN(C(=O)NC3C4CC5CC(C4)CC3C5)CC2)c2c(Br)cccc21` (racemic) [Example 67, (±)-Ethyl 2-(7-bromo-1′-((2-adamantyl)carbamoyl)-2,3-dihydrospiro[indene-1,4′-piperidine]-3-yl)-2-methylpropanoate], the negative-log IC50 (pIC50) was above 7.30.
The value for `CC(C)(C(=O)O)C1CC2(CCN(C(=O)NC3C4CC5CC(C4)CC3C5)CC2)c2c(Br)cccc21` (racemic) [Example 68, (±)-2-(7-Bromo-1′-((2-adamantyl)carbamoyl)-2,3-dihydrospiro[indene-1,4′-piperidine]-3-yl-2-methylpropanoic acid] was above 7.30; that for `CS(=O)(=O)NC(=O)CC1CC2(CCN(C(=O)OC3C4CC5CC(C4)CC3C5)CC2)c2c(Br)cccc21` (racemic) [Example 69, (±)-2-Adamantyl 7-bromo-3-(2-(methylsulfonamido)-2-oxoethyl)-2,3-dihydrospiro[indene-1,4′-piperidine]-1′-carboxylate] was above 7.30; that for `CS(=O)(=O)NC(=O)CC1CC2(CCN(C(=O)NC3C4CC5CC(C4)CC3C5)CC2)c2c(Br)cccc21` (racemic) [Example 70, (±)-7-Bromo-N-(2-adamantyl)-3-(2-(methylsulfonamido)-2-oxoethyl)-2,3-dihydrospiro[indene-1,4′-piperidine]-1′-carboxamide] was above 7.30.
Take `CN(C)C(=O)CC1CC2(CCN(C(=O)OC3C4CC5CC(C4)CC3C5)CC2)c2ccccc21` (racemic) [Example 71, (±)-2-Adamantyl 3-(2-(dimethylamino)-2-oxoethyl)-2,3-dihydrospiro[indene-1,4′-piperidine]-1′-carboxylate]: the pIC50 was above 7.30.
The value for `O=C(O)CC1CC2(CCN(C(=O)NC3C4CC5(O)CC3CC(O)(C4)C5)CC2)c2c(Br)cccc21` (racemic) [Example 76, (±)-2-(7-Bromo-1′-(1,7-dihydroxy-4-adamantylcarbamoyl)-2,3-dihydrospiro[indene-1,4′-piperidine]-3-yl)acetic acid] was 6.00 to 7.30.
The value for `O=C(O)[C@@H]1C[C@H]1C(=O)N1Cc2ccccc2C2(CCN(C(=O)OC3C4CC5CC(C4)CC3C5)CC2)C1` (mixture of isomers) [Example 100, (1RS,2RS)-2-(1′-(2-Adamantyloxycarbonyl)-2,3-dihydro-1H-spiro[isoquinoline-4,4′-piperidine]-2-ylcarbonyl)cyclopropanecarboxylic acid] was above 7.30.

As usually defined, the pIC50 is the negative decadic logarithm of the IC50, by convention in mol/L.

Source of the values: patent US8927715B2, “Inhibitors of 11β-hydroxysteroid dehydrogenase type 1” (Vitae Pharmaceuticals, Inc., priority 2006, dated 2015).
